In US12365695B2, “Fused ring heteroaryl compounds as RIPK1 inhibitors” (BiSiChem Co., Ltd., priority 2019, dated 2025):
pIC50: −log10 of the molar value.

The compounds below were run on HT-29 cells (assay: Cell-based necroptosis assay for RIPK1 activity (cell viability, CCK-8)). Settings: HT29 (human colon cancer), Z-VAD-FMK 20 μM, human TNFα 10 ng/ml, SM-164 100 nM, 24 h, read-out: Necroptosis inhibition (IC50).
Description: Human colon carcinoma cell HT-29 (KCLB 30038), BV2 mouse microglial cell (cell was a kind gift from Dr. Nak-Yun Sung, Senior researcher at Korea Prime Pharmacy CO., LTD.) and human microglial cell HMC3 (ATCC® CRL-3304™). HT-29 cell was grown in Roswell Park Memorial Institute (RPMI) 1640, BV2 cell was grown in Dulbecco's Modified Eagle's Medium (DMEM) and HMC3 cell was grown in Minimum Essential Media Eagle (MEM) supplemented with 10% fetal bovine serum and 1% mixture of penicillin and streptomycin (Gibco). Cells were maintained at 37° C. in a humidified 5% CO2 atmosphere.
To measure the activity of RIPK1 inhibitor in necroptotic cells, HT-29 cells were treated by control DMSO, human TNFα (Peprotech, Rocky Hill, USA), SM-164 (Biovision, California, USA) and a pan-caspase inhibitor Z-VAD-FMK (Invivogen, San Diego, USA). Cells were pretreated with Z-VAD-FMK 20 μM. After 30 min, human TNFα 10 ng/ml, SM-164 100 nM and RIPK1 Inhibitor (0.0001, 0.001, 0.01, 0.02, 0.05, 0.1, 1, 10 uM) were treated for 24 h. Cell viability was measured by Cell Counting Kit 8 (CCK-8) (Dong-in, Seoul, Korea).

SMILES | pIC50
O=C1Nc2ccccc2OC[C@@H]1NC(=O)n1cc(Cc2ccccc2)cn1 [Example 1, (S)-4-benzyl-N-(4-oxo-2,3,4,5-tetrahydrobenzo[b][1,4]oxazepin-3-yl)-1H-pyrazole-1-carboxamide] | > 7.00
O=C1Nc2ccccc2OC[C@@H]1NC(=O)n1cc(Cc2cccc(F)c2)cn1 [Example 2, (S)-4-(3-fluorobenzyl)-N-(4-oxo-2,3,4,5-tetrahydrobenzo[b][1,4]oxazepin-3-yl)-11H-pyrazole-1-carboxamide] | > 7.00
CN1C(=O)[C@@H](NC(=O)n2cc(Cc3cccc(F)c3)cn2)COc2ccccc21 [Example 3, (S)-4-(3-fluorobenzyl)-N-(5-methyl-4-oxo-2,3,4,5-tetrahydrobenzo[b][1,4]oxazepin-3-yl)-4-1H-pyrazole-1-carboxamide] | > 8.00
CN1C(=O)[C@@H](NC(=O)n2cc(Cc3cccc(Cl)c3)cn2)COc2ccccc21 [Example 4, (S)-4-(3-chlorobenzyl)-N-(5-methyl-4-oxo-2,3,4,5-tetrahydrobenzo[b][1,4]oxazepin-3-yl)-1H-pyrazole-1-carboxamide] | > 8.00
Cc1cccc(Cc2cnn(C(=O)N[C@H]3COc4ccccc4N(C)C3=O)c2)c1 [Example 5, (S)—N-(5-methyl-4-oxo-2,3,4,5-tetrahydrobenzo[b][1,4]oxazepin-3-yl)-4-(3-methylbenzyl)-1H-pyrazole-1-carboxamide] | > 8.00
CN1C(=O)[C@@H](NC(=O)n2cc(Cc3cccc(C(F)(F)F)c3)cn2)COc2ccccc21 [Example 6, (S)—N-(5-methyl-4-oxo-2,3,4,5-tetrahydrobenzo[b][1,4]oxazepin-3-yl)-4-(3-(trifluoromethyl)benzyl)-1H-pyrazole-1-carboxamide] | > 7.00
CN1C(=O)[C@@H](NC(=O)n2cc(Cc3cccc(C#N)c3)cn2)COc2ccccc21 [Example 7, (S)-4-(3-cyanobenzyl)-N-(5-methyl-4-oxo-2,3,4,5-tetrahydrobenzo[b][1,4]oxazepin-3-yl)-1H-pyrazole-1-carboxamide] | > 8.00
CN1C(=O)[C@@H](NC(=O)n2cc(Cc3ccc(F)cc3)cn2)COc2ccccc21 [Example 8, (S)-4-(4-fluorobenzyl)-N-(5-methyl-4-oxo-2,3,4,5-tetrahydrobenzo[b][1,4]oxazepin-3-yl)-1H-pyrazole-1-carboxamide] | > 7.00
CN1C(=O)[C@@H](NC(=O)n2cc(Cc3ccc(C#N)cc3)cn2)COc2ccccc21 [Example 9, (S)-4-(4-cyanobenzyl)-N-(5-methyl-4-oxo-2,3,4,5-tetrahydrobenzo[b][1,4]oxazepin-3-yl)-1H-pyrazole-1-carboxamide] | > 7.00
O=C1Nc2c(F)cccc2OC[C@@H]1NC(=O)n1cc(Cc2ccccc2)cn1 [Example 10, (S)-4-benzyl-N-(6-fluoro-4-oxo-2,3,4,5-tetrahydrobenzo[b][1,4]oxazepin-3-yl)-1H-pyrazole-1-carboxamide] | > 7.00
O=C1Nc2c(F)cccc2OC[C@@H]1NC(=O)n1cc(Cc2cccc(F)c2)cn1 [Example 11, (S)—N-(6-fluoro-4-oxo-2,3,4,5-tetrahydrobenzo[b][1,4]oxazepin-3-yl)-4-(3-fluorobenzyl)-1H-pyrazole-1 carboxamide] | > 7.00
CN1C(=O)[C@@H](NC(=O)n2cc(Cc3ccccc3)cn2)COc2cccc(F)c21 [Example 12, (S)-4-benzyl-N-(6-fluoro-5-methyl-4-oxo-2,3,4,5-tetrahydrobenzo[b][1,4]oxazepin-3-yl)-1H-pyrazole-1-carboxamide] | > 8.00
CN1C(=O)[C@@H](NC(=O)n2cc(Cc3cccc(F)c3)cn2)COc2cccc(F)c21 [Example 13, (S)—N-(6-fluoro-5-methyl-4-oxo-2,3,4,5-tetrahydrobenzo[b][1,4]oxazepin-3-yl)-4-(3-fluorobenzyl)-1H-pyrazole-1-carboxamide] | > 8.00
O=C1Nc2c(F)cc(F)cc2OC[C@@H]1NC(=O)n1cc(Cc2ccccc2)cn1 [Example 14, (S)-4-benzyl-N-(6,8-difluoro-4-oxo-2,3,4,5-tetrahydrobenzo[b][1,4]oxazepin-3-yl)-1H-pyrazole-1-carboxamide] | > 7.00
O=C1Nc2c(F)cc(F)cc2OC[C@@H]1NC(=O)n1cc(Cc2cccc(F)c2)cn1 [Example 15, (S)—N-(6,8-difluoro-4-oxo-2,3,4,5-tetrahydrobenzo[b][1,4]oxazepin-3-yl)-4-(3-fluorobenzyl)-1H-pyrazole-1-carboxamide] | < 7.00
CN1C(=O)[C@@H](NC(=O)n2cc(Cc3ccccc3)cn2)COc2cc(F)cc(F)c21 [Example 16, (S)-4-benzyl-N-(6,8-difluoro-5-methyl-4-oxo-2,3,4,5-tetrahydrobenzo[b][1,4]oxazepin-3-yl)-1H-pyrazole-1-carboxamide] | > 8.00

SMILES | pIC50
CN1C(=O)[C@@H](NC(=O)n2cc(Cc3cccc(F)c3)cn2)COc2cc(F)cc(F)c21 [Example 17, (S)—N-(6,8-difluoro-5-methyl-4-oxo-2,3,4,5-tetrahydrobenzo[b][1,4]oxazepin-3-yl)-4-(3-fluorobenzyl)-1H-pyrazole-1-carboxamide] | > 8.00
COc1ccc2c(c1)OC[C@H](NC(=O)n1cc(Cc3ccccc3)cn1)C(=O)N2C [Example 18, (S)-4-benzyl-N-(8-methoxy-5-methyl-4-oxo-2,3,4,5-tetrahydrobenzo[b][1,4]oxazepin-3-yl)-1H-pyrazole-1-carboxamide] | > 8.00
COc1ccc2c(c1)N(C)C(=O)[C@@H](NC(=O)n1cc(Cc3ccccc3)cn1)CO2 [Example 19, (S)-4-benzyl-N-(7-methoxy-5-methyl-4-oxo-2,3,4,5-tetrahydrobenzo[b][1,4]oxazepin-3-yl)-1H-pyrazole-1-carboxamide] | > 8.00
COc1ccc2c(c1)N(C)C(=O)[C@@H](NC(=O)n1cc(Cc3cccc(F)c3)cn1)CO2 [Example 20, (S)-4-(3-fluorobenzyl)-N-(7-methoxy-5-methyl-4-oxo-2,3,4,5-tetrahydrobenzo[b][1,4]oxazepin-3-yl)-1H-pyrazole-1-carboxamide] | > 8.00
CN1C(=O)[C@@H](NC(=O)n2cc(Cc3cccc(F)c3)cn2)COc2cccnc21 [Example 21, (S)-4-(3-fluorobenzyl)-N-(5-methyl-4-oxo-2,3,4,5-tetrahydropyrido[3,2-b][1,4]oxazepin-3-yl)-1H-pyrazole-1-carboxamide] | > 8.00
CN1C(=O)[C@@H](NC(=O)n2cc(Cc3ccccc3)cn2)COc2ccncc21 [Example 22, (S)-4-benzyl-N-(5-methyl-4-oxo-2,3,4,5-tetrahydropyrido[4,3-b][1,4]oxazepin-3-yl)-1H-pyrazole-1-carboxamide] | > 8.00
CN1C(=O)[C@@H](NC(=O)n2cc(Cc3cccc(F)c3)cn2)COc2ccncc21 [Example 23, (S)-4-(3-fluorobenzyl)-N-(5-methyl-4-oxo-2,3,4,5-tetrahydropyrido[4,3-b][1,4]oxazepin-3-yl)-1H-pyrazole-1-carboxamide] | > 8.00
CN1C(=O)[C@@H](NC(=O)n2cc(Cc3ccccc3)cn2)COc2cnccc21 [Example 24, (S)-4-benzyl-N-(1-methyl-2-oxo-1,2,3,4-tetrahydropyrido[3,4-b][1,4]oxazepin-3-yl)-1H-pyrazole-1-carboxamide] | > 7.00
O=C1Nc2c(F)cc(F)cc2CCC1NC(=O)n1cc(Cc2ccccc2)cn1 (stereo not shown) [Example 25, 4-benzyl-N-(7,9-difluoro-2-oxo-2,3,4,5-tetrahydro-1H-benzo[b]azepin-3-yl)-1H-pyrazole-1-carboxamide] | > 7.00
O=C1Nc2c(F)cc(F)cc2CC[C@@H]1NC(=O)n1cc(Cc2cccc(F)c2)cn1 [Example 26, (S)—N-(7,9-difluoro-2-oxo-2,3,4,5-tetrahydro-1H-benzo[b]azepin-3-yl)-4-(3-fluorobenzyl)-1H-pyrazole-1-carboxamide] | > 8.00
CN1C(=O)C(NC(=O)n2cc(Cc3ccccc3)cn2)CCc2cc(F)cc(F)c21 (stereo not shown) [Example 27, 4-benzyl-N-(7,9-difluoro-1-methyl-2-oxo-2,3,4,5-tetrahydro-1H-benzo[b]azepin-3-yl)-1H-pyrazole-1-carboxamide] | > 8.00
CN1C(=O)C(NC(=O)n2cc(Cc3cccc(F)c3)cn2)CCc2cc(F)cc(F)c21 (stereo not shown) [Example 28, N-(7,9-difluoro-1-methyl-2-oxo-2,3,4,5-tetrahydro-1H-benzo[b]azepin-3-yl)-4-(3-fluorobenzyl)-1H-pyrazole-1-carboxamide] | > 8.00
O=C1Nc2nccnc2CCC1NC(=O)n1cc(Cc2ccccc2)cn1 (stereo not shown) [Example 29, 4-benzyl-N-(6-oxo-6,7,8,9-tetrahydro-5H-pyrazino[2,3-b]azepin-7-yl)-1H-pyrazole-1-carboxamide] | < 7.00
O=C1Nc2nccnc2CCC1NC(=O)n1cc(Cc2cccc(F)c2)cn1 (stereo not shown) [Example 30, 4-(3-fluorobenzyl)-N-(6-oxo-6,7,8,9-tetrahydro-5H-pyrazino[2,3-b]azepin-7-yl)-1H-pyrazole-1-carboxamide] | < 7.00
CN1C(=O)C(NC(=O)n2cc(Cc3ccccc3)cn2)CCc2nccnc21 (stereo not shown) [Example 31, 4-benzyl-N-(5-methyl-6-oxo-6,7,8,9-tetrahydro-5H-pyrazino[2,3-b]azepin-7-yl)-1H-pyrazole-1-carboxamide] | < 7.00
